Several values for one entry are separate records, joined by “and”; a condition that tells them apart may be missing. Equal values may be shown once.
How the values were obtained:
[1] = test system: M109 carcinoma; experiment: Antitumor activity vs ip M109 (Madison 109 lung) carcinoma in mice; format: in vivo, mouse; parameters: O.D.: unit not given here; conditions: for O.D.: ip M109 (2×; 4×); for Max. % T/C: ip M109 (2×; 4×): q3d × 2 or qd 1-4, ip, dying mice only
Text: (§1) Results of antitumor testing against the transplantable mouse tumors L1210 leukemia, cisplatin-resistant L1210 leukemia, B16 melanoma, Madison 109 lung carcinoma and colon 26 carcinoma are shown below in Tables 1 and 2.
(§2) The methods used to evaluate the platinum complexes for antitumor activity and toxicity in animals are summarized below. These methods have been published elsewhere in more detail (Rose, et al. Cancer Treat. Rep. 66: 135, 1982; Florczyk, et al, Cancer Treat. Rep. 66: 187, 1982).
(§3) The parent line of L1210 leukemia (L1210) was maintained in DBA/2 mice by ip transplantation of 10^5 cells at weekly intervals. […] B16 malenoma (B16) was maintained by sc transplant in C57BL/6 mice every two weeks. Madison 109 lung carcinoma (M109) and colon 26 carcinoma (C26) were maintained by sc transplant in BALB/c mice every two weeks.
(§4) The level and route of tumor inoculum, host, group size, and drug treatment schedule and route for each tumor type are summarized below in Table 6. Each complex was evaluated initially against L1210 at 4 dose levels per schedule selected on the basis of lethality data provided by the Wadley Institute. In subsequent experiments with the other tumors the complexes were evaluated at a minimum of 3 dose levels selected on the basis of maximum tolerated levels in the L1210 experiments. Cisplatin-treated groups and a saline-treated (or untreated) tumor control group were included in each experiment.
(§5) The L1210 experiments were terminated on Day 30 whereas the B16, C26 and M109 experiments were terminated on Day 60 (some C26 experiments were terminated on Day 75). Mice alive at the termination day were autopsied and considered cured if no tumor was visible. […] A complex was considered active if it produced a % T/C value ≥125.
8 q3d^a × 2 or qd 1-4, ip

[2] = test system: BDF1 mice; experiment: Deaths (D.14) in the BUN test in BDF1 mice; format: in vivo, mouse
[3] = test system: L1210/CDDP (cisplatin resistant line of L1210 leukemia); experiment: Antitumor activity vs cisplatin-resistant L1210 leukemia (L1210/CDDP) in mice; format: in vivo, mouse
Text: Results of antitumor testing against the transplantable mouse tumors L1210 leukemia, cisplatin-resistant L1210 leukemia, B16 melanoma, Madison 109 lung carcinoma and colon 26 carcinoma are shown below in Tables 1 and 2. […]
as §2, §3, §4, §5

[4] = test system: BDF1 mice; experiment: Single-dose ip LD50 in BDF1 mice; format: in vivo, mouse; conditions: 30 days observation
Procedure: Single-dose ip LD50 values were determined in BDF1 mice for the indicated complexes.

[5] = test system: L1210 leukemia; experiment: Antitumor activity vs transplantable L1210 leukemia (ip) in mice; format: in vivo, mouse; conditions: for Max % T/C: dying mice only; for OD (optimum dose): optimum dose from the L1210 test
Text: The antitumor activities of the complexes provided by the present invention have been determined against L-1210 leukemia in the mouse and, for certain of the complexes, against other mouse tumor systems.
as §1
In Table 1 are shown the maximum % T/C values obtained for each platinum compound versus L1210 leukemia using both single and qd 1→5 dosing.
as §2, §3, §4, §5

[6] = test system: BDF1 mice; experiment: Nephrotoxicity: effect on blood urea nitrogen (BUN) in BDF1 mice; conditions: for BUN↑, Mouse: effect relative to cisplatin
Procedure: The other compounds were in such short supply that they were tested for effects on BUN values using the optimum dose (O.D.) from the L1210 test for dose selection.
The toxicity studies were done in male BDF1 mice (25-29 gm) and castrated male Fitch ferrets (1-1.5 kg).
The complexes that were active against L1210 were evaluated for nephrotoxicity by determining their effects on blood urea nitrogen (BUN) levels in mice. Groups of 40-50 mice/experiment were bled from the retro-orbital plexus and individual BUN values determined by a modified urease method using a Centrifichem System 400. The test complex, or saline for controls, was given at several dose levels (5-10 mice/dose) in single ip injections. The highest dose of the complex usually corresponded to its LD50 value or 1.5 times its optimal single dose in the L1210 experiment. At least two lower doses were included to evaluate dose-related effects. The BUN values were measured 4 and 7 days after dosing. BUN values ≥30 mg% were considered indicative of drug-induced nephrotoxicity.

[7] = test system: B16 melanoma; experiment: Antitumor activity vs ip B16 melanoma in mice; format: in vivo, mouse; parameters: O.D.: unit not given here; conditions: for O.D.: ip B16 (3×; 9×); for Max. % T/C: ip B16 (3×; 9×): q4d × 3 or qd 1-9, ip, dying mice only
Text: as §2, §3
The level and route of tumor inoculum, host, group size, and drug treatment schedule and route for each tumor type are summarized below in Table 6. Each complex was evaluated initially against L1210 at 4 dose levels per schedule selected on the basis of lethality data provided by the Wadley Institute.
as §5

[8] = test system: ferret; experiment: Emetic effects (and lethality) in the ferret; format: in vivo, castrated male Fitch ferrets
Procedure: Selected complexes were evaluated for emetic effects in ferrets. […] The time to the first emetic episode (retching and expulsion of vomitus) and the number of episodes were recorded. […] Subsequent test doses were selected based on the emetic response and lethality of the initial dose.

[9] = Solubility stated in the preparation examples
[10] = test system: C26 carcinoma; experiment: Antitumor activity vs ip C26 (colon 26) carcinoma in mice; format: in vivo, mouse; parameters: O.D.: unit not given here
Text: as §1, §2, §3, §4, §5
8 q3d^b × 2 or qd 1-4, ip

[11] = L1210, single dose Day 1, ip, (a), (b) determinations
[12] = L1210, single dose Day 1, ip, dose giving the Max % T/C, same order
[13] = Day 1, in intralipid plus ethanol
[14] = L1210, Day 1, in intralipid plus ethanol

Row | Structure (SMILES) | O.D. [1] | Max. % T/C [1] [%] | Deaths D.14 ([2]; 17 mg/kg ip) | Cures/total ([3]; Day 1) | O.D. (optimal dose) ([3]; Day 1) [mg/kg/inj] | Max % T/C ([3]; Day 1, dying mice only) [%] | LD50 [4] [mg/kg/ip] | O.D. (optimal dose) ([5]; L1210, QD 1 → 5, ip) [mg/kg/inj] | Max % T/C ([5]; L1210, QD 1 → 5, ip) [%] | Max % T/C [5, 11] | O.D. (optimal dose) [5, 12] | OD (optimum dose) [5] [mg/kg/ip] | Incidence of BUN > 30 mg % ([6]; 17 mg/kg ip) | BUN↑, Mouse [6] | O.D. [7] | Max. % T/C [7] [%] | other results
1 | CCC(=O)C(=O)[O-].CCC(=O)C(=O)[O-].N[C@@H]1CCCC[C@H]1N.[Pt+2] (relative stereo) [Example 5, bis(2-ketobutyrato)trans(-)-1,2-diaminocyclohexane platinum(II)] | 6 | 131 | 1/10 | 2/6 | 9 | 144 | 30 | 2.5 | 193 | 186% and 200% | 10 mg/kg/inj and 9 mg/kg/inj | 10 | 0/10 | 0 | 4 | 163 | Deaths D.14 ([2]; 22.5 mg/kg ip): 1/10; Deaths D.14 ([2]; 30 mg/kg ip): 3/10; Incidence of BUN > 30 mg % ([6]; 22.5 mg/kg ip): 0/10; Incidence of BUN > 30 mg % ([6]; 30 mg/kg ip): 1/9
2 | CCCCB([O-])[O-].N[C@@H]1CCCC[C@H]1N.[Pt+2] (relative stereo) [Example 7, n-butylboronato trans(-)-1,2-diaminocyclohexane platinum(II)] |  |  |  |  |  |  | 11.3 | 1 |  | 179% | 3 mg/kg/inj | 3.6 |  | 0 | 1.2 | 120 | Deaths D.14 ([2]; 6.4 mg/kg ip): 0/10; Deaths D.14 ([2]; 8.5 mg/kg ip): 0/10; Deaths D.14 ([2]; 11.3 mg/kg ip): 0/10; Cures/total [3, 13]: 5/6; O.D. (optimal dose) [3, 13]: 8 mg/kg/inj; Max % T/C ([3]; Day 1, in intralipid plus ethanol, dying mice only): 427%; O.D. (optimal dose) [5, 14]: 6 mg/kg/inj; Max % T/C [5, 14]: 236% and 217%; Incidence of BUN > 30 mg % ([6]; 6.4 mg/kg ip): 0/10; Incidence of BUN > 30 mg % ([6]; 8.5 mg/kg ip): 0/10; Incidence of BUN > 30 mg % ([6]; 11.3 mg/kg ip): 0/10
3 | N[C@@H]1CCCC[C@H]1N.[O]=[Mn](=[O])([O-])[O-].[Pt+2] [Example 8, manganato trans(-)-1,2-diaminocyclohexane platinum(II)] |  |  | 1/10 |  | 8 | 181 | 31 | 2.5 | 293 | 214% and 186% | 20 mg/kg/inj and 18 mg/kg/inj | 20 | 0/9 | 0 | 2 | 160 | Deaths D.14 ([2]; 23 mg/kg ip): 3/10; Deaths D.14 ([2]; 31 mg/kg ip): 2/10; Incidence of BUN > 30 mg % ([6]; 23 mg/kg ip): 0/7; Incidence of BUN > 30 mg % ([6]; 31 mg/kg ip): 0/8; Emesis Episodes ([8]; 16 mg/kg iv): 15; Emesis onset in responding animals ([8]; 16 mg/kg iv): 16 min; No. With Emesis/No. tested ([8]; 16 mg/kg iv, 6 h observation): 1/1; acute lethality ([8]; ferret, 16 mg/kg iv): 44 min; Lethal dose ([8]; ferret, doses marked * = Lethal dose): 16 mg/kg iv
4 | NCC1(N)CCCCCCC1.[O-]B([O-])O.[Pt+2] [Example 13, borato 1-aminomethylcyclooctylamine platinum(II)] | 3 | 81 |  | 2/6 | 8 | 256 |  | 4 | 207 | 229% and 207% | 16 mg/kg/inj | 16 |  | 0 | 2 | 167 | Ratio of Max. % T/C Complex/cDDP ([1]; ip M109, relative to concomitant cisplatin): .52; Deaths D.14 ([2]; 16 mg/kg ip): 0/5; Deaths D.14 ([2]; 24 mg/kg ip): 0/5; Solubility in methanol ([9]; methanol): soluble; Solubility in water ([9]; water): soluble; O.D. ([10]; ip C26 (2×; 4×)): 8; Max. % T/C ([10]; ip C26 (2×; 4×): q3d × 2 or qd 1-4, ip, dying mice only): 88%; Ratio of Max. % T/C Complex/cDDP ([10]; ip C26, relative to concomitant cisplatin): .61; Incidence of BUN > 30 mg % ([6]; 16 mg/kg ip): 0/5; Incidence of BUN > 30 mg % ([6]; 24 mg/kg ip): 0/5; Ratio of Max. % T/C Complex/cDDP ([7]; ip B16, relative to concomitant cisplatin): .90
